Laboratory results as given in PMC4919643, “Intestinally-targeted TGR5 agonists equipped with quaternary ammonium have an improved hypoglycemic effect and reduced gallbladder filling effect” (Scientific Reports, 2016).

Tests used:
ob/ob mice [1] = experiment: Long-term (18-day) study in ob/ob mice; format: in vivo, mouse; conditions: for decrease of HbA1c level on day 18: 18 days; for HbA1c, signed change vs control (Fig. 9C): day 18
mouse TGR5 = biological target: T1, mouse TGR5 (Mus musculus, UniProt Q80SS6); experiment: In vitro TGR5 reporter gene assay (mTGR5/CRE/HEK293)
T1 sequence (Q80SS6 1-329): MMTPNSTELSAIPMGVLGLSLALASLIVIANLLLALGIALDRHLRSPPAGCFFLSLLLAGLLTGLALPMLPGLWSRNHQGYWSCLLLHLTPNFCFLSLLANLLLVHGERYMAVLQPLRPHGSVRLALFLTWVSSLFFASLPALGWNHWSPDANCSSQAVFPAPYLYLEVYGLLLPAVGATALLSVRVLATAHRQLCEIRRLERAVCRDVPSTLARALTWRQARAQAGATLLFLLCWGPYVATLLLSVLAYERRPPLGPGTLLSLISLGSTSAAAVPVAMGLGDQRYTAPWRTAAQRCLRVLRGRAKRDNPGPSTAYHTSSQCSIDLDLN

ob/ob mice [2] = experiment: Gallbladder filling assay in ob/ob mice; format: in vivo, mouse; conditions: once a day oral dose 100 mg/kg (single dose)
Experimental: Figure 8 (A) Relative gallbladder area and (B) relative bile weight after once a day oral dose or 3-day treatment. […] 1 h after the final dose, mice were re-fed for 3 h and then the gallbladder was removed and the area measured using a vernier caliper. The relative gallbladder area was calculated from the length multiplied by the width of the gallbladder. Bile weight was measured using analytical balances. **p < 0.01; ***p < 0.001. Error bar indicates SEM.
Acute efficacy in ob/ob mice. 7-week-old ob/ob mice (male) were divided into three groups (n = 8) based on 2 h-fasted blood glucose. […]
mg/kg) and 0.25% CMC (control) was then orally administered to 2 h-fasted mice, and blood glucose was measured at 2, 4, 6, 8, 10, and 24 h after dosing. […]
then divided into 3 subgroup of different time point (n = 8-9 each subgroup). […] Concentrations of active GLP-1[7-36 amide] in the serum were measured using ELISA kit from Linco Research. […]
administered to 12 h-fasted ob/ob mice (n = 3 per time point). […] After centrifugation at 11000 rpm for 5 mins, the supernatant was analyzed by LC-MS/MS. […]
administered orally to overnight-fasted ob/ob mice (male, n = 3-6). 1 h after dosing, mice were refed for 3 hours, and then gallbladders were removed, and the area was measured using vernier caliper. The relative gallbladder area was calculated from the length multiplied by the width of the gallbladder. […]

ICR mice = experiment: Oral glucose tolerance test (OGTT) in ICR mice; format: in vivo, mouse
Experimental: Blood glucose levels were measured berefore and after glucose loading. *p < 0.05, **p < 0.01 vs. control. Error bar indicateds SEM (standard error of the mean). […]
Oral glucose tolerance test (OGTT) and gallbladder filling assay in ICR mice. 100 […]
mice (n = 7-8) 90 min prior to the oral glucose load (4 g/kg). Blood glucose levels were measured via blood drops obtained by clipping the tail of the mice using an Accu-Chek Advantage II Glucose Monitor (Roche, Indianapolis, IN, USA) before compound dosing and 0, 15, 30, 60, and 120 min after the glucose load. The area under the concentration−time curve from 0 to 120 min (AUC0−120 min, Glu) of blood glucose after the glucose load was calculated by the trapezoidal rule. […]

[3] = 100 mg/kg p.o., after 18-day treatment
[4] = 18-day treatment, 50 or 100 mg/kg p.o., dose-dependent
[5] = 18-day treatment, data not shown

## CN(CC[N+](C)(C)C)C(=O)CCc1cc(Cl)c(Oc2ccsc2C(=O)N2CCN(C3CC3)c3ccccc32)cc1Cl [Compound 26a]
ob/ob mice [1]; 50 mg/kg p.o., not significant
  decrease of HbA1c level on day 18: 0.48%
ob/ob mice [1]; 50 mg/kg p.o., after 18-day treatment
  triglyceride, signed change vs control (Fig. 9D): -7.2%
ob/ob mice [1]; 50 mg/kg p.o.
  HbA1c, signed change vs control (Fig. 9C): -0.48%
ob/ob mice [1]; 100 mg/kg p.o., significant
  decrease of HbA1c level on day 18: 0.94%
ob/ob mice [1]; [3]
  decrease of triglyceride level: 22%
  triglyceride, signed change vs control (Fig. 9D): -22%
ob/ob mice [1]; 100 mg/kg p.o.
  HbA1c, signed change vs control (Fig. 9C): -0.94%
ob/ob mice [1]; 18-day treatment
  body weight of mice: not affected
ob/ob mice [1]; 18-day treatment, 50 or 100 mg/kg p.o.
  significant change in levels of total cholesterol: not observed
ob/ob mice [1]; [4]
  fasting blood glucose: decreased dramatically
  non-fasting blood glucose: decreased dramatically
ob/ob mice [1]; [5]
  level of alanine aminotransferase: No significant changes
  level of alkaline phosphatase: No significant changes
  level of aspartate aminotransferase: No significant changes
  level of total bilirubin: No significant changes
Mouse TGR5
  EC50: 0.71 nM
ob/ob mice [2]
  bile weight vs control: did not increase gallbladder area or bile weight significantly
  gallbladder area vs control: did not increase gallbladder area or bile weight significantly
ICR mice; 100 mg/kg p.o.
  AUC0–120 min of blood glucose, signed change vs control (OGTT, Fig. 3B): -18%
ICR mice; 100 mg/kg p.o. 1.5 h before glucose 4 g/kg
  decrease of blood glucose AUC vs control (OGTT): 18%
